{"source": "patent US9617602B2", "about": "“Methods and compositions for determining resistance to androgen receptor therapy” (Aragon Pharmaceuticals, Inc., priority 2012, dated 2017)", "format_in_all_cases": "cell-based, human", "key": {"LNCaP ARN-509r2 cells": {"system": "LNCaP ARN-509r2 cells", "assay": "Endogenous gene transcriptional assay (real-time PCR of androgen responsive genes)", "settings": "1 nM R1881 or 30 μM compound, vehicle=1.00", "protocol": "(§1) Total RNA was isolated using the Aurum™ total RNA isolation kit (BIO-RAD, Hercules, Calif.). RNA (1 μg) was reverse transcribed using the iScript cDNA synthesis kit (BIO-RAD, Hercules, Calif.) to produce cDNA. Real-time PCR was performed using the Applied Biosystems 7900HT instrument and SYBR Green PCR Master Mix (Applied Biosystems, Foster City, Calif.). PCR reactions were performed in 6 μL according to the manufacturer's protocol and a thermocycle protocol of 95° C. for 10 minutes followed by 40 cycles of 95° C. for 15 seconds and 58° C. for 1 minute. Androgen responsive gene (PSA, SLUG, TMPRSS2, STEAP4, FKBP5, ORM1, NOV, FASN, NKX3.1, AMIGO2, BDNF, CAMK2N1, HPGD, NCAPD3, PLD1) expression was normalized to GAPDH expression and expressed relative to vehicle treatment of the parental cell line.\n(§2) Gene expression was normalized to GAPDH as described above."}, "LNCaP/AR-Luc cells": {"system": "LNCaP/AR-Luc cells", "assay": "Endogenous gene transcriptional assay (real-time PCR of androgen responsive genes)", "settings": "1 nM R1881 or 30 μM compound, vehicle=1.00", "protocol": "as §1, §2"}, "LNCaP/AR(cs) cells": {"system": "LNCaP/AR(cs) cells", "assay": "Transcriptional reporter assay (probasin-luciferase)", "settings": "for Agonist Transcriptional Reporter Assay (% Max Activity): [Antagonists] = 50 μM; for Antagonist Transcriptional Reporter Assay (% Max Activity): [Antagonists] = 50 μM in presence of R1881", "protocol": "(§3) With the exception of the LNCaP/AR(cs)-Luc cells that contain an integrated androgen responsive reporter, cells were transiently transfected using Lipofectin® (Life Technologies) according to the manufacturer's protocol. […] Following transfection, the cells were incubated for 4 hours.\n(§4) Following 48 hour incubation the medium was removed and the cells were lysed in 40 μL of lysis buffer (25 mM Tris Phosphate, 2 mM CDTA, 10% Glycerol, 0.5% Triton X-100, 2 mM DTT)."}, "LNCaP cells [1]": {"system": "LNCaP cells", "assay": "Transcriptional reporter assay (probasin-luciferase)", "settings": "for Agonist Transcriptional Reporter Assay (% Max Activity): [Antagonists] = 50 μM; for Antagonist Transcriptional Reporter Assay (% Max Activity): [Antagonists] = 50 μM in presence of R1881", "protocol": "as §3, §4"}, "LNCaP cells [2]": {"system": "LNCaP cells", "assay": "Endogenous gene transcriptional assay (real-time PCR of androgen responsive genes)", "settings": "1 nM R1881 or 30 μM compound, vehicle=1.00", "protocol": "as §1, §2"}}, "data": [{"smiles": "CNC(=O)c1ccc(N2C(=S)N(c3cnc(C#N)c(C(F)(F)F)c3)C(=O)C23CCC3)cc1F", "note": "[ARN-509]", "values": [{"measurement": "AMIGO2 gene expression", "setting": "LNCaP ARN-509r2 cells", "value": 0.67}, {"measurement": "BDNF gene expression", "setting": "LNCaP ARN-509r2 cells", "value": 1.04}, {"measurement": "CAM2KN1 gene expression", "setting": "LNCaP ARN-509r2 cells", "value": 0.46}, {"measurement": "FASN gene expression", "setting": "LNCaP ARN-509r2 cells", "value": 0.98}, {"measurement": "FKBP5 gene expression", "setting": "LNCaP ARN-509r2 cells", "value": 8.00}, {"measurement": "HPGD gene expression", "setting": "LNCaP ARN-509r2 cells", "value": 1.49}, {"measurement": "NKX3.1 gene expression", "setting": "LNCaP ARN-509r2 cells", "value": 3.73}, {"measurement": "NOV gene expression", "setting": "LNCaP ARN-509r2 cells", "value": 1.39}, {"measurement": "ORM1 gene expression", "setting": "LNCaP ARN-509r2 cells", "value": 3.94}, {"measurement": "PLD1 gene expression", "setting": "LNCaP ARN-509r2 cells", "value": 0.81}, {"measurement": "PSA gene expression", "setting": "LNCaP ARN-509r2 cells", "value": 1.91}, {"measurement": "SLUG gene expression", "setting": "LNCaP ARN-509r2 cells", "value": 1.31}, {"measurement": "STEAP4 gene expression", "setting": "LNCaP ARN-509r2 cells", "value": 1.45}, {"measurement": "TMPRSS2 gene expression", "setting": "LNCaP ARN-509r2 cells", "value": 3.07}, {"measurement": "AMIGO2 gene expression", "setting": "LNCaP/AR-Luc cells", "value": 1.13}, {"measurement": "BDNF gene expression", "setting": "LNCaP/AR-Luc cells", "value": 1.17}, {"measurement": "CAM2KN1 gene expression", "setting": "LNCaP/AR-Luc cells", "value": 1.13}, {"measurement": "FASN gene expression", "setting": "LNCaP/AR-Luc cells", "value": 1.08}, {"measurement": "FKBP5 gene expression", "setting": "LNCaP/AR-Luc cells", "value": 1.16}, {"measurement": "HPGD gene expression", "setting": "LNCaP/AR-Luc cells", "value": 1.88}, {"measurement": "NKX3.1 gene expression", "setting": "LNCaP/AR-Luc cells", "value": 1.14}, {"measurement": "NOV gene expression", "setting": "LNCaP/AR-Luc cells", "value": 2.55}, {"measurement": "ORM1 gene expression", "setting": "LNCaP/AR-Luc cells", "value": 1.27}, {"measurement": "PLD1 gene expression", "setting": "LNCaP/AR-Luc cells", "value": 1.45}, {"measurement": "PSA gene expression", "setting": "LNCaP/AR-Luc cells", "value": 0.60}, {"measurement": "SLUG gene expression", "setting": "LNCaP/AR-Luc cells", "value": 1.13}, {"measurement": "STEAP4 gene expression", "setting": "LNCaP/AR-Luc cells", "value": 0.88}, {"measurement": "TMPRSS2 gene expression", "setting": "LNCaP/AR-Luc cells", "value": 0.74}, {"measurement": "Agonist Transcriptional Reporter Assay (% Max Activity)", "setting": "LNCaP/AR(cs) cells", "value": "+ (‘+’ = <5)"}, {"measurement": "Antagonist Transcriptional Reporter Assay (% Max Activity)", "setting": "LNCaP/AR(cs) cells", "value": "+ (‘+’ = <5)"}, {"measurement": "Agonist Transcriptional Reporter Assay (% Max Activity)", "setting": "LNCaP cells [1]", "value": "+ (‘+’ = <5)"}, {"measurement": "Antagonist Transcriptional Reporter Assay (% Max Activity)", "setting": "LNCaP cells [1]", "value": "+ (‘+’ = <5)"}, {"measurement": "AMIGO2 gene expression", "setting": "LNCaP cells [2]", "value": 1.12}, {"measurement": "BDNF gene expression", "setting": "LNCaP cells [2]", "value": 1.09}, {"measurement": "CAM2KN1 gene expression", "setting": "LNCaP cells [2]", "value": 1.17}, {"measurement": "FASN gene expression", "setting": "LNCaP cells [2]", "value": 1.34}, {"measurement": "FKBP5 gene expression", "setting": "LNCaP cells [2]", "value": 0.99}, {"measurement": "HPGD gene expression", "setting": "LNCaP cells [2]", "value": 1.48}, {"measurement": "NKX3.1 gene expression", "setting": "LNCaP cells [2]", "value": 0.90}, {"measurement": "NOV gene expression", "setting": "LNCaP cells [2]", "value": 1.73}, {"measurement": "ORM1 gene expression", "setting": "LNCaP cells [2]", "value": 0.71}, {"measurement": "PLD1 gene expression", "setting": "LNCaP cells [2]", "value": 1.09}, {"measurement": "PSA gene expression", "setting": "LNCaP cells [2]", "value": 0.66}, {"measurement": "SLUG gene expression", "setting": "LNCaP cells [2]", "value": 1.27}, {"measurement": "STEAP4 gene expression", "setting": "LNCaP cells [2]", "value": 0.78}, {"measurement": "TMPRSS2 gene expression", "setting": "LNCaP cells [2]", "value": 0.77}]}, {"smiles": "CNC(=O)c1ccc(N2C(=S)N(c3ccc(C#N)c(C(F)(F)F)c3)C(=O)C2(C)C)cc1F", "note": "[Enzalutamide, enzalutamide]", "values": [{"measurement": "AMIGO2 gene expression", "setting": "LNCaP ARN-509r2 cells", "value": 0.63}, {"measurement": "BDNF gene expression", "setting": "LNCaP ARN-509r2 cells", "value": 0.77}, {"measurement": "CAM2KN1 gene expression", "setting": "LNCaP ARN-509r2 cells", "value": 0.38}, {"measurement": "FASN gene expression", "setting": "LNCaP ARN-509r2 cells", "value": 0.93}, {"measurement": "FKBP5 gene expression", "setting": "LNCaP ARN-509r2 cells", "value": 3.41}, {"measurement": "HPGD gene expression", "setting": "LNCaP ARN-509r2 cells", "value": 4.56}, {"measurement": "NCAPD3 gene expression", "setting": "LNCaP ARN-509r2 cells", "value": 1.35}, {"measurement": "NKX3.1 gene expression", "setting": "LNCaP ARN-509r2 cells", "value": 6.28}, {"measurement": "NOV gene expression", "setting": "LNCaP ARN-509r2 cells", "value": 0.71}, {"measurement": "ORM1 gene expression", "setting": "LNCaP ARN-509r2 cells", "value": 23.75}, {"measurement": "PLD1 gene expression", "setting": "LNCaP ARN-509r2 cells", "value": 0.29}, {"measurement": "PSA gene expression", "setting": "LNCaP ARN-509r2 cells", "value": 2.48}, {"measurement": "SLUG gene expression", "setting": "LNCaP ARN-509r2 cells", "value": 9.58}, {"measurement": "TMPRSS2 gene expression", "setting": "LNCaP ARN-509r2 cells", "value": 4.86}, {"measurement": "AMIGO2 gene expression", "setting": "LNCaP/AR-Luc cells", "value": 1.44}, {"measurement": "BDNF gene expression", "setting": "LNCaP/AR-Luc cells", "value": 1.08}, {"measurement": "CAM2KN1 gene expression", "setting": "LNCaP/AR-Luc cells", "value": 1.51}, {"measurement": "FASN gene expression", "setting": "LNCaP/AR-Luc cells", "value": 1.40}, {"measurement": "FKBP5 gene expression", "setting": "LNCaP/AR-Luc cells", "value": 1.46}, {"measurement": "HPGD gene expression", "setting": "LNCaP/AR-Luc cells", "value": 2.51}, {"measurement": "NCAPD3 gene expression", "setting": "LNCaP/AR-Luc cells", "value": 1.33}, {"measurement": "NKX3.1 gene expression", "setting": "LNCaP/AR-Luc cells", "value": 1.68}, {"measurement": "ORM1 gene expression", "setting": "LNCaP/AR-Luc cells", "value": 1.39}, {"measurement": "PLD1 gene expression", "setting": "LNCaP/AR-Luc cells", "value": 1.33}, {"measurement": "PSA gene expression", "setting": "LNCaP/AR-Luc cells", "value": 0.44}, {"measurement": "SLUG gene expression", "setting": "LNCaP/AR-Luc cells", "value": 2.73}, {"measurement": "STEAP4 gene expression", "setting": "LNCaP/AR-Luc cells", "value": 1.23}, {"measurement": "TMPRSS2 gene expression", "setting": "LNCaP/AR-Luc cells", "value": 1.35}, {"measurement": "Agonist Transcriptional Reporter Assay (% Max Activity)", "setting": "LNCaP/AR(cs) cells", "value": "+ (‘+’ = <5)"}, {"measurement": "Antagonist Transcriptional Reporter Assay (% Max Activity)", "setting": "LNCaP/AR(cs) cells", "value": "+ (‘+’ = <5)"}, {"measurement": "Agonist Transcriptional Reporter Assay (% Max Activity)", "setting": "LNCaP cells [1]", "value": "+ (‘+’ = <5)"}, {"measurement": "Antagonist Transcriptional Reporter Assay (% Max Activity)", "setting": "LNCaP cells [1]", "value": "+ (‘+’ = <5)"}, {"measurement": "AMIGO2 gene expression", "setting": "LNCaP cells [2]", "value": 1.20}, {"measurement": "BDNF gene expression", "setting": "LNCaP cells [2]", "value": 0.85}, {"measurement": "CAM2KN1 gene expression", "setting": "LNCaP cells [2]", "value": 1.39}, {"measurement": "FASN gene expression", "setting": "LNCaP cells [2]", "value": 1.24}, {"measurement": "HPGD gene expression", "setting": "LNCaP cells [2]", "value": 1.78}, {"measurement": "NCAPD3 gene expression", "setting": "LNCaP cells [2]", "value": 1.20}, {"measurement": "NKX3.1 gene expression", "setting": "LNCaP cells [2]", "value": 1.66}, {"measurement": "NOV gene expression", "setting": "LNCaP cells [2]", "value": 2.57}, {"measurement": "PLD1 gene expression", "setting": "LNCaP cells [2]", "value": 0.70}, {"measurement": "PSA gene expression", "setting": "LNCaP cells [2]", "value": 1.69}, {"measurement": "SLUG gene expression", "setting": "LNCaP cells [2]", "value": 2.35}, {"measurement": "TMPRSS2 gene expression", "setting": "LNCaP cells [2]", "value": 1.68}]}]}
